The target of the experiment is T1, human VR1 (Homo sapiens, UniProt Q8NER1).
T1 construct: expressed in transfected cells; host or cells: HEK293
The experiment is described as follows: Human VR1 functional assay (FLIPR intracellular Ca2+). Format: cell-based. To be noted: for IC50: antagonism of capsaicin-induced Ca2+ increase, read-out: h IC50; for inhibition at 5 µM: read-out: h % I (5 μM); for inhibition at 1 µM: read-out: h % I (1 μM). As to the method: The functional activity of the test compounds was determined by measuring changes in intracellular calcium concentration using a Ca^2+-sensitive fluorescent dye and FLIPR™ technology. Increases in Ca^2+ concentration were readily detected upon challenge with capsaicin. HEK293 Cells expressing human VR1 were grown on poly-D-lysine coated 384 well black-walled plates (BD 354663) and 1 day later loaded with Calcium 3 Dye for 35 min at 37 C, 5% CO2 and then for 25 min at room temperature, and subsequently tested for agonist-induced increases in intracellular Ca^2+ levels using FLIPR™ technology. Cells were challenged with test compounds (at varying concentrations, which are indicated in parentheses in the heading of the table below) and intracellular Ca^2+ was measured for 5 min prior to the addition of capsaicin to all wells to achieve a final concentration of eliciting an approximate 80% maximal response ([…]). EC50 or IC50 values were determined from dose-response studies. Curves were generated using the average of quadruplicate wells for each data point.

Where [1] appears, read: inhibition of capsaicin response.

T1 sequence (Q8NER1 whole entry): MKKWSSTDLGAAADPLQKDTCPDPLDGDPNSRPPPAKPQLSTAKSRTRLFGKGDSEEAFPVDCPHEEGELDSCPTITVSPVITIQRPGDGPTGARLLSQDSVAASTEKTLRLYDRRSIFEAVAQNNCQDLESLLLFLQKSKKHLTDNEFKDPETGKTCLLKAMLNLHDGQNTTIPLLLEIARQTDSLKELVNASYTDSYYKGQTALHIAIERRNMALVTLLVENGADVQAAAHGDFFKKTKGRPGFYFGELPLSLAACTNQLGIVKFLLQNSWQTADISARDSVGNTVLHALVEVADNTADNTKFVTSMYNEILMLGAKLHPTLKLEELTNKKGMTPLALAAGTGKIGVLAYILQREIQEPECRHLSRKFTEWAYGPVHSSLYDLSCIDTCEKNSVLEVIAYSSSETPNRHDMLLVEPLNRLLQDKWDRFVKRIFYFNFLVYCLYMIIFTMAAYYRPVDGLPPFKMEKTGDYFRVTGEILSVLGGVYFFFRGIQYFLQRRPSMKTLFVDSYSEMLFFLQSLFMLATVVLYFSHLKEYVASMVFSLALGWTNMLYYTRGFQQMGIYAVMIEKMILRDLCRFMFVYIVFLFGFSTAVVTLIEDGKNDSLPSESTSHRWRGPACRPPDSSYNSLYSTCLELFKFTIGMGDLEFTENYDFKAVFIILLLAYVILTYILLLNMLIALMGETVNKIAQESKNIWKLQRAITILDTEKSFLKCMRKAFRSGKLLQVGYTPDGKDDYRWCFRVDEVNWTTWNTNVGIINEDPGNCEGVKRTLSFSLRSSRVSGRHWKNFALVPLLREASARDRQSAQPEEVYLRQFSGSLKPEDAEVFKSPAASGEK

For `Cc1cc(NC(=O)CCc2ccc(SC(F)(F)F)cc2)cnc1-n1cnc(Cl)c1Cl`, the “h % I (1 μM)” value under setting [1] stood at 41%.
As for `CC(C)(C)c1ccc(CCC(=O)Nc2ccccc2-c2ccccc2O)cc1` [Cpd 8], where the note is “inhibition of capsaicin response, 10 μM”, the “h % I (10 μM)” value is 45%.
One may read the IC50 as the concentration that gives 50% inhibition. `Cc1cc(NC(=O)CCc2ccc(C(C)(C)C)cc2)cc(C)c1-c1cccc(O)c1` [Cpd 86, 3-(4-tert-butyl-phenyl)-N-(3′-hydroxy-2,6-dimethyl-biphenyl-4-yl)-propionamide]: the IC50 amounted to 109 nM. Also, the inhibition at 5 µM under setting [1] is 97%.
For `Cc1cc(NC(=O)CCc2ccc(C(C)(C)C)cc2)cc(C)c1-c1ccc(O)cc1` [Cpd 87], the IC50 was found to be 857 nM. In addition, the inhibition at 5 µM under setting [1] is 92%.
Consider `Cc1cc(NC(=O)CCc2ccc(C(C)(C)C)cc2)cc(C)c1-c1ccc(CO)cc1` [Cpd 88], for which the IC50 is 1710 nM. Also, the inhibition at 5 µM under setting [1] was found to be 84%.
With `CC(C)(C)c1ccc(CCC(=O)Nc2cc(F)c(-c3cccc(O)c3)c(F)c2)cc1` [Cpd 89], under setting [1], the “h % I (5 μM)” value is given as 65%.
Take `CC(C)(C)c1ccc(CCC(=O)Nc2cc(F)c(-c3ccc(O)cc3)c(F)c2)cc1` [Cpd 90]: the “% Response Relative to EC80 of Capsaicin (6 μM)” value (“% Response Relative to EC80” below) (agonist response, 6 μM) came to 17%.
As for `CC(C)(C)c1ccc(CCC(=O)Nc2cc(F)c(-c3ccc(CO)cc3)c(F)c2)cc1` [Cpd 91], the “% Response Relative to EC80” value (agonist response, 6 μM) is reported as 22%.
Usually EC50 stands for the concentration that produces a half-maximal response. On to `CC(C)(C)c1ccc(CCC(=O)Nc2ccc(-c3cccc(CO)c3)c(CO)c2)cc1` [Cpd 95], for which, under “agonist response, 6 μM, read-out: % Response Relative to EC80 of Capsaicin (6 μM)”, the Emax at 6 µM worked out at 127%. In addition, the EC50 (agonist-induced Ca2+ increase, read-out: h EC50) worked out at 248 nM. Under setting [1], the inhibition at 1 µM is 40%.
`Cc1cc(NC(=O)CCc2ccc(C(C)(C)C)cc2)cnc1-c1cccc(O)c1` [Cpd 161, 3-(4-tert-butyl-phenyl)-N-[6-(3-hydroxy-phenyl)-5-methyl-pyridin-3-yl]-propionamide]: the IC50 stood at 36 nM. For the same compound, the inhibition at 5 µM under setting [1] came out at 94%.
Regarding `Cc1cc(NC(=O)CCc2ccc(C(C)(C)C)cc2)cnc1-c1ccc(O)cc1` [Cpd 162, 3-(4-tert-butyl-phenyl)-N-[6-(4-hydroxy-phenyl)-5-methyl-pyridin-3-yl]-propionamide], the IC50 amounted to 126 nM. In addition, the inhibition at 5 µM under setting [1] came to 99%.
With `Cc1cc(NC(=O)CCc2ccc(C(C)(C)C)cc2)cnc1-c1ccc(CO)cc1` [Cpd 163, 3-(4-tert-butyl-phenyl)-N-[6-(4-hydroxymethyl-phenyl)-5-methyl-pyridin-3-yl]-propionamide], the IC50 is 97 nM. The inhibition at 5 µM under setting [1] was 100%.
With `Cc1cc(NC(=O)CCc2ccc(C(C)(C)C)cc2)cnc1-c1cccnc1` [Cpd 164, 3-(4-tert-butyl-phenyl)-N-(3-methyl-[2,3′]bipyridinyl-5-yl)-propionamide], the IC50 worked out at 193 nM. In addition, the inhibition at 5 µM under setting [1] came to 99%.
In the same order, the values of `Cc1cc(NC(=O)CCc2ccc(C(C)(C)C)cc2)cnc1-c1ccncc1` [Cpd 165, 3-(4-tert-butyl-phenyl)-N-(3-methyl-[2,4′]bipyridinyl-5-yl)-propionamide] are 73 nM and 99%.
With `Cc1cc(NC(=O)CCc2ccc(C(C)(C)C)cc2)cc(C)c1-c1cccnc1` [Cpd 166], the IC50 turned out to be 2860 nM. In addition, under setting [1], the inhibition at 5 µM turned out to be 76%.
In the same order, the values of `Cc1cc(NC(=O)CCc2ccc(C(C)(C)C)cc2)cc(C)c1-c1ccncc1` [Cpd 167, 3-(4-tert-butyl-phenyl)-N-(3,5-dimethyl-4-pyridin-4-yl-phenyl)-propionamide] are 183 nM and 93%.
With `CC(C)(C)c1ccc(CCC(=O)Nc2cc(F)c(-c3cccnc3)c(F)c2)cc1` [Cpd 168], the IC50 was 1560 nM. Further, the inhibition at 5 µM under setting [1] was 95%.
Take `CC(C)(C)c1ccc(CCC(=O)Nc2ccc(-c3cccnc3)c(CO)c2)cc1` [Cpd 170]: the “% Response Relative to EC80” value (agonist response, 6 μM) is recorded as 101%. Under setting [1], the “h % I (1 μM)” value was 37%.
In the case of `Cc1cc(NC(=O)CCc2ccc(C(C)(C)C)cc2)ccc1-c1ccccn1` [Cpd 172], the concentration for half-maximal inhibition (IC50) turned out to be 142 nM.
On to `CC(C)(C)c1ccc(CCC(=O)Nc2ccc(-c3ccccn3)c(F)c2)cc1` [Cpd 173], for which the IC50 came to 388 nM.
As for `Cc1cc(NC(=O)CCc2ccc(C(C)(C)C)cc2)cc(C)c1-c1ccccn1` [Cpd 174], the IC50 was 2890 nM.
Same read-out and setting: to `Cc1cc(NC(=O)CCc2ccc(C(C)(C)C)cc2)cnc1-c1ccccn1` [Cpd 177] belongs 295 nM.
Same read-out and setting: to `CC(C)(C)c1ccc(CCC(=O)Nc2ccc(-c3cccnc3)c(F)c2)cc1` [Cpd 181] belongs 400 nM.
Consider `CC(C)(C)c1ccc(CCC(=O)Nc2cnc(-c3ccccc3O)cn2)cc1` [Cpd 183], for which, under setting [1], the “h % I (1 μM)” value is 1% and the “h % I (5 μM)” value is reported as 9%.
`CC(C)(C)c1ccc(CCC(=O)Nc2cnc(-c3cccc(O)c3)cn2)cc1` [Cpd 184]: under setting [1], the “h % I (1 μM)” value is recorded as 1% and the “h % I (5 μM)” value was determined as 14%.
As for `CC(C)(C)c1ccc(CCC(=O)Nc2cnc(-c3ccc(O)cc3)cn2)cc1` [Cpd 185], under setting [1], the “h % I (1 μM)” value is on record as 1% and the “h % I (5 μM)” value was determined as 24%.
On to `CC(C)(C)c1ccc(CCC(=O)Nc2cnc(-c3ccc(CO)cc3)cn2)cc1` [Cpd 186], for which, under setting [1], the “h % I (1 μM)” value amounted to 6% and the “h % I (5 μM)” value came to 39%.
In the same order, the values of `CC(C)(C)c1ccc(CCC(=O)Nc2cnc(-c3cccnc3)cn2)cc1` [Cpd 187] are 11% and 15%.
In the same order, the values of `CC(C)(C)c1ccc(CCC(=O)Nc2cnc(-c3ccncc3)cn2)cc1` [Cpd 188] are 4% and 33%.
As for `Cc1cn(-c2ccc(NC(=O)CCc3ccc(S(=O)(=O)C(F)(F)F)cc3)cc2C(F)(F)F)cn1` [Cpd 209], the IC50 came out at 48 nM. Also, the inhibition at 1 µM under setting [1] was 100%.
Regarding `O=C(CCc1ccc(C(F)(F)F)cc1)Nc1cnc(-c2ccccc2O)c(C(F)(F)F)c1` [Cpd 213], the 50% inhibitory concentration (IC50) was 64.5 nM. Also, under setting [1], the inhibition at 5 µM amounted to 100%.
`Cc1cn(-c2ccc(NC(=O)CCc3ccc(SC(F)(F)F)cc3)cc2C(F)(F)F)cn1` [Cpd 219]: the IC50 worked out at 100 nM. The inhibition at 1 µM under setting [1] is 100%.
As for `Cc1cn(-c2ccc(NC(=O)CCc3ccc([S+]([O-])C(F)(F)F)cc3)cc2C(F)(F)F)cn1` (centres unmarked) [Cpd 222], the IC50 is 137 nM. Moreover, the inhibition at 1 µM under setting [1] turned out to be 100%.
Take `O=C(/C=C/c1ccc(C(F)(F)F)cn1)Nc1ccc(-n2cnc(Cl)c2Cl)c(C(F)(F)F)c1` [Cpd 235, trans-N-[4-(4,5-Dichloro-imidazol-1-yl)-3-trifluoromethyl-phenyl]-3-(5-trifluoromethyl-pyridin-2-yl)-acrylamide]: the IC50 was 294 nM. The inhibition at 1 µM under setting [1] is 99%.
On to `O=C(CCc1ccc(C(F)(F)F)cc1)Nc1ccc(-n2cnc(C(F)(F)F)c2)c(C(F)(F)F)c1` [Cpd 238, 3-(4-Trifluoromethyl-phenyl)-N-[3-trifluoromethyl-4-(4-trifluoromethyl-imidazol-1-yl)-phenyl]-propionamide], for which the IC50 was determined as 340 nM. In addition, the inhibition at 1 µM under setting [1] is 100%.
In the same order, the values of `O=C(CCc1ccc(SC(F)(F)F)cc1)Nc1ccc(-n2cnc(Cl)c2Cl)c(C(F)(F)F)c1` [Cpd 239] are 358 nM and 88%.
In the same order, the values of `O=C(CCc1ccc(F)cc1)Nc1ccc(-n2cnc(Cl)c2Cl)c(C(F)(F)F)c1` [Cpd 243] are 440 nM and 92%.
As for `O=C(CCc1ccc([S+]([O-])C(F)(F)F)cc1)Nc1ccc(-n2cnc(Cl)c2Cl)c(C(F)(F)F)c1` (centres unmarked) [Cpd 244], the IC50 was determined as 452 nM. The inhibition at 1 µM under setting [1] was 85%.
For `Cc1cc(NC(=O)CCc2ccc(C(F)(F)F)cc2)cnc1-n1ccnc1` [Cpd 247], the IC50 amounted to 549 nM. In addition, the inhibition at 5 µM under setting [1] is 97%.
`O=C(CCc1ccc(C(F)(F)F)cn1)Nc1ccc(-n2cnc(Cl)c2Cl)c(C(F)(F)F)c1` [Cpd 248]: the IC50 worked out at 602 nM. In addition, the inhibition at 1 µM under setting [1] worked out at 83%.
Take `O=C(CCc1ccc(C(F)(F)F)cc1)Nc1cnc(-c2cccnc2)c(C(F)(F)F)c1` [Cpd 249]: the IC50 turned out to be 613 nM. Moreover, the inhibition at 5 µM under setting [1] was 100%.
Take `O=C(CCc1ccc(F)c(F)c1)Nc1ccc(-n2ccnc2)c(C(F)(F)F)c1` [Cpd 256]: under setting [1], the inhibition at 1 µM came out at 42%.
As to `Cc1cc(NC(=O)CCc2ccc(F)c(F)c2)cnc1-n1cnc(Cl)c1Cl` [Cpd 257], under setting [1], the inhibition at 1 µM stood at 41%.
As to `COc1cccc(-c2ncc(NC(=O)CCc3ccc(C(C)(C)C)cc3)cc2C)c1` [Cpd 259], the inhibition at 5 µM under setting [1] was found to be 90%.
Regarding `CC(C)(C)c1ccc(CCC(=O)Nc2ccc(-n3ccnc3)c(C(F)(F)F)c2)cc1` [Cpd 264], under setting [1], the “h % I (1 μM)” value amounted to 24% and the “h % I (5 μM)” value amounted to 48%.
For the compound `O=C(CCc1ccc(C(F)(F)F)cc1)Nc1ccc(-c2noc(C(F)(F)F)n2)c(C(F)(F)F)c1` [Cpd 265, 3-(4-Trifluoromethyl-phenyl)-N-[3-trifluoromethyl-4-(5-trifluoromethyl-[1,2,4]oxadiazol-3-yl)-phenyl]-propionamide], under setting [1], the inhibition at 1 µM amounted to 18% and the inhibition at 5 µM amounted to 63%.

(Values after US20060223837A1 (priority 2005, published 2006).)
